# From patent publication US20250176550A1, “HERBICIDE COMPOSITION OF URACIL COMPOUND CONTAINING CARBOXYLATE FRAGMENT AND THE USE THEREOF” (Jiangsu Flag Chemical Industry Co., Ltd., priority 2022, published 2025)
# Where two headings read alike, the source gives them in different places.
# Legend:
# Type in all cases: in vivo
# setaria viridis = assay: Indoor virulence and combined effect, greenhouse pot test, post-emergence stem and leaf spray, fresh weight inhibition; details: for inhibition at 750 g/ha: 750 g a.i./ha; for Fresh weight inhibition rate %, B single agent: Table 10
# Protocol: (§1) The active ingredients A and B are respectively screened and an indoor combined effect of the composition on weeds was evaluated by an indoor test and a field test, to determine a combined effect of the composition on weeds.
# Quantitative seeds of Poaceae weeds (echinochloa crusgalli, Digitaria sanguinalis, setaria viridis, Eleusine indica, avena fatua, alopecurus japonicus, alopecurus aequalis, Lolium multiflorum) and broadleaf weeds (eclipta prostrata, rorippa dubia, Abutilon theophrasti, conyza canadensis, veronica persica, myosoton aquaticum, polygonum lapathifolium, galium aparine var. tenerum, alisma plantago-aquatica, geranium carolinianum) were sown in paper cup containing nutrient soil with a diameter of 7 cm, covered with soil for 1 cm after sowing. After pressing and watering, they were cultured in a greenhouse according to a conventional method. Poaceae weeds grew to 3˜4 leaf stage, broad-leaved weeds grew to 4˜6 leaf stage, spraying treatment to both stem and leaf was performed; and pre-seedling soil spray treatment was performed 24 hours after sowing. […] The experiment was repeated three times. After being treated, a sample material is placed in an operation hall, and after the drug solution is naturally dried out, the sample material is placed in a greenhouse and managed according to the conventional method.
# (§2) All of original drugs were using acetone as a solvent, being diluted with 0.1 wt % emulsifier of Tween-80 aqueous solution, and being diluted right before using.
# (§3) When determining a ratio or content of the active ingredient A and the active ingredient B, it should be measured from characteristics of action of both agents and virulence thereof, as well as the main purpose of use of a formula shall also be considered in. In the present study, on a basis of previous pre-test, the dosages of the active ingredient A and the active ingredient B were set, when being used alone and mixed, as shown in the following table. Water containing no agent, but containing the same solvent and emulsifier was used as a blank control.
# (§4) Repeat 4 times for each treatment, 3 pots per treatment each time and 30 weed seeds were sown for each pot.
# (§5) Adopting an absolute number survey method, using a blade to cut the whole seedling of surviving weed along soil surface, and weighting the fresh weight of the weed with an analytical balance. For weeds that had died, counting the fresh weight as zero.
# (§6) Survey period and frequency: 21 days after the treatment, total 1 investigation.
# When E-E0 value was greater than 10%, it was counted as a synergistic effect, less than −10%, it was counted as an antagonistic effect, and between −10%˜10%, it was counted as an additive effect. […] In the formula, X is the fresh weight inhibition rate of the ingredient A at a dosage of P; Y is the fresh weight inhibition rate of the active ingredient B at a dosage of Q.
# eclipta prostrata = assay: Indoor virulence and combined effect, greenhouse pot test, pre-emergence soil spray treatment, fresh weight inhibition
# Protocol: as §1
# (§7) Quantitative seeds of Poaceae weeds (echinochloa crusgalli, Digitaria sanguinalis, setaria viridis, Eleusine indica, avena fatua, alopecurus japonicus, alopecurus aequalis, Lolium multiflorum) and broadleaf weeds (eclipta prostrata, rorippa dubia, Abutilon theophrasti, conyza canadensis, veronica persica, myosoton aquaticum, polygonum lapathifolium, galium aparine var. tenerum, alisma plantago-aquatica, geranium carolinianum) were sown in paper cup containing nutrient soil with a diameter of 7 cm, covered with soil for 1 cm after sowing. After pressing and watering, they were cultured in a greenhouse according to a conventional method. Poaceae weeds grew to 3˜4 leaf stage, broad-leaved weeds grew to 4˜6 leaf stage, spraying treatment to both stem and leaf was performed; and pre-seedling soil spray treatment was performed 24 hours after sowing. Following an experimental design dosage, a WP-2000 walking spray tower (spindle speed 96 mm/r, spray height 200 mm, effective spray amplitude of nozzle 350 mm, nozzle flow rate 390 mL/min, nozzle walking speed 210 mm/s) was used for the spray treatment. The experiment was repeated three times. After being treated, a sample material is placed in an operation hall, and after the drug solution is naturally dried out, the sample material is placed in a greenhouse and managed according to the conventional method. A reaction of weeds to the drug agent is observed and recorded, and a regularly visual check of a control effect of the drug agent on weeds was performed after the treatment.
# as §2, §3, §4, §5, §6
# (§8) The theoretical fresh weight inhibition rate (E0-Expected Efficacy=[…]) of each treatment combination was calculated by Gowing method, and then compared with the measured inhibition rate (E-Observed Efficacy) to evaluate the combined effect type of both on weeds. When E-E0 value was greater than 10%, it was counted as a synergistic effect, less than −10%, it was counted as an antagonistic effect, and between −10%˜10%, it was counted as an additive effect. According to a plurality of factors including an actual control efficacy, a herbicide characteristic, a formula balance and other factors to determine the best ratio. In the formula, X is the fresh weight inhibition rate of the ingredient A at a dosage of P; Y is the fresh weight inhibition rate of the active ingredient B at a dosage of Q.
# (§9) The statistical results are shown in Table 1 to Table 44 below, except for those marked clearly as “pre-emergence treatment”, all others are “post-emergence treatment”. […]
# digitaria sanguinalis = assay: as above
# Protocol: as §1, §7, §2, §3, §4, §5, §6, §8, §9
# eleusine indica = assay: as above
# Protocol: as §1, §7, §2, §3, §4, §5, §6, §8, §9
# alopecurus japonicus = assay: Indoor virulence and combined effect, greenhouse pot test, post-emergence stem and leaf spray, fresh weight inhibition; details: Alopecurus japonicus, 504 h, post-emergence, 21 days after treatment, read-out: Fresh weight inhibition rate %, B single agent; for inhibition at 25 g/ha: 25 g a.i./ha
# Protocol: as §1, §7, §2, §3, §4, §5, §6, §8, §9
compound,measurement,setting,value
CCNc1nc(Cl)nc(NC(C)C)n1 [atrazine],inhibition at 600 g/ha,"setaria viridis; Setaria viridis, 504 h, Table 8, 600 g a.i./ha, post-emergence, 21 days after treatment, read-out: Fresh weight inhibition rate %, B single agent",26.1%
same,inhibition at 750 g/ha,"setaria viridis; Setaria viridis, 504 h, Table 8, post-emergence, 21 days after treatment, read-out: Fresh weight inhibition rate %, B single agent",33%
same,inhibition at 800 g/ha,"setaria viridis; Setaria viridis, 504 h, Table 8, 800 g a.i./ha, post-emergence, 21 days after treatment, read-out: Fresh weight inhibition rate %, B single agent",41.6%
CCc1cccc(C)c1N(C(=O)CCl)[C@@H](C)COC [S-metolachlor],"Fresh weight inhibition rate %, B single agent","eclipta prostrata; Table 28, B 300 g a.i./ha",45.64%
same,"Fresh weight inhibition rate %, B single agent","eclipta prostrata; Table 28, B 450 g a.i./ha",57.41%
same,"Fresh weight inhibition rate %, B single agent","eclipta prostrata; Table 28, B 600 g a.i./ha",61.78%
same,"Fresh weight inhibition rate %, B single agent","eclipta prostrata; Table 28, B 750 g a.i./ha",70.72%
CC(C)c1ccc(NC(=O)N(C)C)cc1 [isoproturon],"Fresh weight inhibition rate %, B single agent",setaria viridis; B 400 g a.i./ha,22.19%
same,"Fresh weight inhibition rate %, B single agent",setaria viridis; B 495 g a.i./ha,23.26%
same,"Fresh weight inhibition rate %, B single agent",setaria viridis; B 600 g a.i./ha,33.26%
CCOCN(C(=O)CCl)c1c(C)cccc1CC [acetochlor],"Fresh weight inhibition rate %, B single agent","digitaria sanguinalis; Table 40, B 250 g a.i./ha",55.88%
same,"Fresh weight inhibition rate %, B single agent","digitaria sanguinalis; Table 40, B 375 g a.i./ha",67.45%
CCCN(CCC)c1c([N+](=O)[O-])cc(C(F)(F)F)cc1[N+](=O)[O-] [trifluralin],"Fresh weight inhibition rate %, B single agent","digitaria sanguinalis; Table 39, B 156.25 g a.i./ha",12.50%
same,"Fresh weight inhibition rate %, B single agent","digitaria sanguinalis; Table 39, B 250 g a.i./ha",48.67%
same,"Fresh weight inhibition rate %, B single agent","digitaria sanguinalis; Table 39, B 375 g a.i./ha",62.58%
CCC(CC)Nc1c([N+](=O)[O-])cc(C)c(C)c1[N+](=O)[O-] [pendimethalin],"Fresh weight inhibition rate %, B single agent","eleusine indica; Table 21, B 300 g a.i./ha",36.92%
same,"Fresh weight inhibition rate %, B single agent","eleusine indica; Table 21, B 375 g a.i./ha",54.44%
CCC(=O)Nc1ccc(Cl)c(Cl)c1 [propanil],inhibition at 500 g/ha,"setaria viridis; Setaria viridis, 504 h, Table 6, 500 g a.i./ha, post-emergence, 21 days after treatment, read-out: Fresh weight inhibition rate %, B single agent",48.1%
same,inhibition at 750 g/ha,"setaria viridis; Setaria viridis, 504 h, Table 6, post-emergence, 21 days after treatment, read-out: Fresh weight inhibition rate %, B single agent",58.1%
same,inhibition at 1000 g/ha,"setaria viridis; Setaria viridis, 504 h, Table 6, 1000 g a.i./ha, post-emergence, 21 days after treatment, read-out: Fresh weight inhibition rate %, B single agent",69.1%
CCSC(C)CC1CC(=O)C(/C(CC)=N/OC/C=C/Cl)=C(O)C1 (centres unmarked) [clethodim],inhibition at 25 g/ha,alopecurus japonicus; Table 5,7.52%
same,inhibition at 40 g/ha,"alopecurus japonicus; Table 5, 40 g a.i./ha",34.8%
same,inhibition at 60 g/ha,"alopecurus japonicus; Table 5, 60 g a.i./ha",43%
CCc1cc(C)cc(CC)c1-c1c(OC(=O)C(C)(C)C)n2n(c1=O)CCOCC2 [pinoxaden],inhibition at 15 g/ha,"alopecurus japonicus; Table 7, 15 g a.i./ha",38.8%
same,inhibition at 20 g/ha,"alopecurus japonicus; Table 7, 20 g a.i./ha",42.3%
same,inhibition at 25 g/ha,alopecurus japonicus; Table 7,58.7%
